The subject of this assay is non-cancerous human breast cell line MCF-10A. The assay is described as follows: Cell viability assay. Format: cell-based. Conditions: for EC50(C)/EC50 (B): selectivity ratio MCF-10A over BT-474; for EC50(C)/EC50(A): selectivity ratio MCF-10A over MCF-7.

Regarding `[Cl][Au].c1ccc(P(c2ccccc2)c2ccccc2)cc1` [[AuCl(PPh3)]], the “EC50(C)/EC50 (B)” value is 5.70 ± 0.43 and the “EC50(C)/EC50(A)” value is listed as 5.30 ± 0.61.
Take `CC[P](CC)(CC)=[Au][S][C@@H]1O[C@H](COC(C)=O)[C@@H](OC(C)=O)[C@H](OC(C)=O)[C@H]1OC(C)=O` [AF, [(2R,3R,4S,5R,6S)-3,4,5-tris(acetyloxy)-6-{[(triethyl-λ5-phosphanylidene)aurio]sulfanyl}oxan-2-yl]methyl acetate]: the “EC50(C)/EC50 (B)” value worked out at 0.81 ± 0.13 and the “EC50(C)/EC50(A)” value is 0.78 ± 0.11.
Consider [Au(mba)(PPh3)], for which the “EC50(C)/EC50 (B)” value is 1.57 ± 0.13 and the “EC50(C)/EC50(A)” value was determined as 2.34 ± 0.35.
